Assay results published in PubChem BioAssay (NCI).
Where “and” joins values, the source holds several entries; their conditions need not be identical. Equal values may be shown once.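 The compound was tested at five concentrations on cells cultured in 96-well plates, with a 48-hour exposure period. GI50 is the concentration that inhibits growth by half. TGI denotes the concentration required for complete inhibition of growth.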

Legend:
Experiment in all cases: NCI-60 cell line screen, 48 h
HCT-116 colon = test system: HCT-116 colon
NCI/ADR-RES ovarian = test system: NCI/ADR-RES ovarian
OVCAR-5 ovarian = test system: OVCAR-5 ovarian
RPMI-8226 leukemia = test system: RPMI-8226 leukemia
SK-MEL-5 melanoma = test system: SK-MEL-5 melanoma
SK-OV-3 ovarian = test system: SK-OV-3 ovarian
SNB-19 CNS = test system: SNB-19 CNS
SW-620 colon = test system: SW-620 colon
TK-10 renal = test system: TK-10 renal
UO-31 renal = test system: UO-31 renal

Row | SMILES | GI50 (HCT-116 colon) | TGI (HCT-116 colon) | GI50 (NCI/ADR-RES ovarian) | TGI (NCI/ADR-RES ovarian) | GI50 (OVCAR-5 ovarian) | TGI (OVCAR-5 ovarian) | GI50 (RPMI-8226 leukemia) | TGI (RPMI-8226 leukemia) | GI50 (SK-MEL-5 melanoma) | TGI (SK-MEL-5 melanoma) | GI50 (SK-OV-3 ovarian) | TGI (SK-OV-3 ovarian) | GI50 (SNB-19 CNS) | TGI (SNB-19 CNS) | GI50 (SW-620 colon) | TGI (SW-620 colon) | GI50 (TK-10 renal) | TGI (TK-10 renal) | GI50 (UO-31 renal) | TGI (UO-31 renal)
1 | CC[C@]12C=CCN3CC[C@@]4(c5ccc(OC)cc5N(C)[C@H]4[C@@](O)(C(=O)OC)[C@@H]1OC(=O)CCC[P+](c1ccccc1)(c1ccccc1)c1ccccc1)[C@@H]32 | 0.727 µM and 0.627 µM | 5.59 µM and 10.4 µM | > 50 µM and 68.9 µM | > 100 µM | 1.19 µM and 1.38 µM | 5.91 µM and 11 µM | 0.118 µM and 0.164 µM | 1.29 µM and 0.597 µM | 0.817 µM and 1.65 µM | 1.53 µM and 3.02 µM | 0.894 µM and 0.439 µM | 3.8 µM and 2.46 µM | 0.296 µM and 0.382 µM | 6.04 µM and 1.66 µM | 1.01 µM and 0.749 µM | 7.04 µM and 11.4 µM | 1.59 µM and 1.28 µM | 6.46 µM and 3.3 µM | 8.57 µM and 13.4 µM | 26.2 µM and 26.9 µM
2 | Cn1c(=O)c2c(nc(Nc3cc(=O)[nH]c(=O)[nH]3)n2Cc2ccccc2)n(C)c1=O | > 100 µM | > 100 µM | > 100 µM | > 100 µM | > 100 µM | > 100 µM | 15.9 µM | > 100 µM | 48 µM | > 100 µM | > 100 µM | > 100 µM | > 100 µM | > 100 µM | > 100 µM | > 100 µM | > 100 µM | > 100 µM | 77 µM | > 100 µM
3 | COc1cc(C(=O)c2cc(C)c3[nH]c4ccc(Cl)cc4c3c2C)cc(OC)c1OC | 0.0376 µM | 3.19 µM | 0.032 µM | 11.9 µM | 0.0635 µM | 18 µM | 0.0421 µM | 18.6 µM | 0.0361 µM | 0.196 µM | 0.666 µM | 34.7 µM | 0.0418 µM | 19.2 µM | 0.0415 µM | 24.8 µM | 2.71 µM | 29.4 µM | 0.12 µM | 11.5 µM
4 | CCOC(=O)/C=C/C(C(=O)/C=C/c1ccc(OC2CCCCO2)c(OC)c1)=C(O)\C=C\c1ccc(OC2CCCCO2)c(OC)c1 (stereo not drawn) | 2.09 µM | 4.76 µM | 10.6 µM | 46.3 µM | 7.81 µM | 74.5 µM | 4.13 µM | 17.8 µM | 4.44 µM | 16.5 µM | 23.1 µM | > 100 µM | 5.32 µM | 25.2 µM | 3.65 µM | > 100 µM | 2.84 µM | 9.21 µM | 2.63 µM | 7.56 µM
5 | Oc1ccc(Cl)cc1Cc1cc(Cl)cc(Cl)c1O | 3.53 µM | 12.9 µM | 3.29 µM | 10 µM | 11.3 µM | 26.6 µM | 3.09 µM | 11.9 µM | 1.85 µM | 4.89 µM | 2.93 µM | 13.1 µM | 3.83 µM | 28.9 µM | 5.37 µM | 19.9 µM | 7.88 µM | 44.1 µM | 3.48 µM | 15.2 µM
6 | COc1ccc(C(=O)c2cc(OC)c(C)c(OC)c2)cc1OC(=O)CCl | 0.392 µM | > 38.3 µM | 0.181 µM | 4.38 µM | 4.37 µM | > 100 µM | 0.337 µM | 14.1 µM | 0.463 µM | 3.4 µM | 0.76 µM | > 100 µM | 0.388 µM | > 100 µM | 0.211 µM | > 100 µM | 17.2 µM | > 100 µM | 0.628 µM | 74 µM
7 | O=c1n(CC2CO2)c(=O)n(CC2CO2)c(=O)n1CC1CO1 (stereo not drawn) | 12.3 µM and 10.2 µM | 43.9 µM and 88.6 µM and > 100 µM | 16.3 µM and 11.7 µM | 237 µM and > 100 µM | 18.2 µM and 19.9 µM | 56 µM and 118 µM and 40.1 µM | 28.4 µM and 17.6 µM | 399 µM and > 100 µM | 16.8 µM and 25.3 µM and 9.6 µM | 37.3 µM and 79.6 µM and 75.6 µM | 6.86 µM | 123 µM and > 100 µM | 22 µM and 6.55 µM | 98.3 µM and > 100 µM | 26.3 µM and 13.2 µM | 228 µM and > 100 µM | 21.1 µM | 121 µM and > 100 µM | 21.1 µM and 6.42 µM | 88.6 µM and 118 µM and > 100 µM
8 | CC(=O)OC1Oc2ccccc2-c2oc(=O)c(-c3cc(=O)oc4cc(O)ccc34)cc21 (stereo not drawn) | 25 µM | > 100 µM | 18.1 µM | 44.6 µM | 26.6 µM | 57.2 µM | 13.1 µM | 44.1 µM | 13.2 µM | 26.5 µM | 26.7 µM | 87.6 µM | 26.6 µM | > 100 µM | 25.8 µM | 74.4 µM | 32.6 µM | > 100 µM | 22.2 µM | 58.9 µM
9 | O=C(Nc1ccc(OS(=O)(=O)c2ccccc2)cc1)C12CC3CC(CC(C3)C1)C2 | 2.5 µM | > 100 µM | 5.75 µM | > 100 µM | > 100 µM | > 100 µM | 2.15 µM | > 100 µM | 3.12 µM | > 100 µM | > 100 µM | > 100 µM | > 100 µM | > 100 µM | 1.97 µM | > 100 µM | > 100 µM | > 100 µM | 18.7 µM | > 100 µM
10 | COc1ccc2c(c1)CCC1C2CC[C@@]2(C)C1CC1=CC(COC(C)=O)C3C(=O)c4ccccc4C(=O)C3C12 (stereo partly drawn) | > 100 µM | > 100 µM | > 100 µM | > 100 µM | > 100 µM | > 100 µM | 51.2 µM | > 100 µM | > 100 µM | > 100 µM | > 100 µM | > 100 µM | > 100 µM | > 100 µM | > 100 µM | > 100 µM | > 100 µM | > 100 µM | 61.7 µM | > 100 µM
11 | O=C(c1ccccc1)c1cc(Cl)ccc1OCCCCN1CCN(CCCCOc2ccc(Cl)cc2C(=O)c2ccccc2)CC1 | 1.79 µM | 3.38 µM | 2.93 µM | 12 µM | 17.9 µM | 48.1 µM | 1.16 µM | 2.8 µM | 2.34 µM | 4.88 µM | 17.1 µM | 31.9 µM | 10 µM | 22.8 µM | 2.92 µM | 8.5 µM | 4.26 µM | 17 µM | 3.86 µM | 15.1 µM
12 | Cc1nnc(S(=O)(=O)c2ccc(N=Nc3c(N)nc(N)nc3N)cc2)s1 |  | > 100 µM |  | > 100 µM |  | > 100 µM |  | > 100 µM |  | > 100 µM |  | > 100 µM |  | > 100 µM |  | > 100 µM |  | > 100 µM |  | > 100 µM
13 | CNCCNc1c2c(c(NCCNC)c3c(CN(C)C)c[nH]c13)C(=O)c1ccccc1C2=O | 1.55 µM | 8.29 µM | 12.7 µM | 40.2 µM | 2.95 µM | 13.9 µM | 0.938 µM | 5.2 µM | 2.98 µM | 14.2 µM | 17.1 µM | 50.8 µM | 12.2 µM | > 41.7 µM | 1.31 µM | 11 µM | 7.11 µM | 15.9 µM | 3 µM | 14.4 µM
14 | CCC[CH2][Sn]([CH2]CCC)([CH2]CCC)[O]C(=O)CC | 0.138 µM | 0.294 µM | 0.37 µM | > 100 µM | 0.154 µM | 0.387 µM | 0.169 µM | 0.506 µM | 0.139 µM | 0.27 µM | 0.143 µM | 0.296 µM | 0.169 µM | 0.335 µM | 0.151 µM | 0.301 µM | 0.161 µM | 0.305 µM | 0.15 µM | 0.314 µM
15 | CC/C(=C(/c1ccc(OCCN(C)C)cc1)c1ccc(OC(=O)CCCCC(=O)c2c(C)[nH]c(/C=C3\N=C(c4ccc[nH]4)C=C3OC)c2C)cc1)c1ccccc1 | 3.55 µM | 13.9 µM | 12.6 µM | 46.8 µM | 10.6 µM | 22.5 µM | 3.17 µM | 18.8 µM | 1.61 µM | 3.11 µM | 14.1 µM | 27 µM | 12.8 µM | 27.4 µM | 3.16 µM | 11.4 µM | 12.8 µM | 25.4 µM | 2.81 µM | 21.3 µM
16 | CNCCCn1cc(C2=C(c3cn(C)c4ccccc34)C(=O)NC2=O)c2ccccc21 | 3.17 µM | 12.3 µM | 14.1 µM | 25 µM | 7.65 µM | 20.7 µM | 5.12 µM | 11.7 µM | 3.77 µM | 7.3 µM | 4.26 µM | 22.5 µM | 6.29 µM | 22.7 µM | 3.72 µM | 8.13 µM | 4.16 µM | 10.7 µM | 3.58 µM | 11.8 µM
17 | O=C1NC(=Nc2ccccc2)S/C1=C\c1ccc2ncccc2c1 | 1.14 µM | > 25 µM | > 6.88 µM | > 25 µM | > 25 µM | > 25 µM |  | > 25 µM | > 25 µM | > 25 µM | > 25 µM | > 25 µM | > 22.9 µM | > 25 µM | 0.965 µM | > 25 µM | > 25 µM | > 25 µM | > 25 µM | > 25 µM
18 | CCCCCCCCCC/C=C/CC(=O)SCCNC(=O)CCNC(=O)[C@@H](O)C(C)(C)COP(=O)(O)OP(=O)(O)OCC1OC(n2cnc3c(N)ncnc32)C(O)C1OP(=O)(O)O (stereo partly drawn) |  | > 10 µM |  | > 10 µM |  | > 10 µM |  | > 10 µM |  | > 10 µM |  | > 10 µM |  | > 10 µM |  | > 10 µM |  | > 10 µM |  | 
